Assay results published in patent US4992426A, “Antiparasitic 5'-sulfamoyl nucleosides” (Nucleic Acid Research Institute, priority 1989, dated 1991).
Values after ≈ are worked out from the molar mass of the structure shown. “Also recorded” adds a separate entry of the source.

Columns and labels:
L. donovani = test: Antileishmanial activity in animals (mouse model of visceral leishmaniasis); assay type: in vivo, Leishmania donovani; conditions: mice; for LDUs in Liver / Suppression (%): one week
Method: Antiparasitic activity of the compounds of the invention in animals against L. donovani was determined in a manner similar to that previously described J. S. Keithly and S. G. Langreth, Amer. J. Trop. Med. Hyg., 32, 485 (1983) for a hamster model. Briefly, mice were infected with 5×10^7 stationary phase promastigotes subcultured in Schneider's drosophila medium with 15% heat inactivated fetal bovine serum. The compounds of the invention were administered by gavage nine days after infection and continued for one week. Positive controls received Pentostam intraperitoneally. Infected, untreated controls received water orally but no intraperitoneal sham injections. Mice were necropsied sixteen days after infection (seven days after the beginning of drug treatment).
% Suppression = 100 100(LDUs of experimental/LDUs of control)

[1] = tested on: Leishmania donovani, Trypanosoma qambiense, Giardia lamblia and Trichomonas vaqinalis; test: In vitro antiparasitic activity against various pathogens (overall); assay type: cell-based; conditions: compounds 2, 3 and 4 compared
Method: (§1) The antiparasitic activities of the 1-(5'-0-sulfamoyl-β-D-ribofuranosyl)[1,2,4]triazolo 3-carboxamide, 3-thiocarboxamide and 3-carbonitrile compounds of the invention are shown in various in vitro and in vivo systems. […] These are representative of the protozoan diseases: leishmaniasis, trypanosomiasis, giardiasis and trichomoniasis.
Leishmania donovani (ATCC #30142)) and Trypanosoma qambiense (TH114, obtained from R. Brun, Schweizer Tropeninstitut, Basel, Switzerland) were grown in THOSMEM, HOSMEM and PPDM-79 media respectively as described in J. J. Marr, R. L. Berens and D. J. Nelson, J. Science. 202, 1018 (1978), J. J. Marr, D. J. Nelson and R. L. Berens, Biochim. Biophys. […] Final cell density was determined by counting the cells on a Coulter Counter (Model ZBI); control cultures reached a final density of ≈2·10^7 /ml.
Giardia lamblia (PI, ATCC #30888) and Trichomonas vaqinalis (ATCC #3301) were grown in modified TYI medium in 13×100 mm screw cap tubes as described in R. L. Berens and J. J. Marr, Biochem. Pharm., 35, 4191 (1986). […] These parasites were counted by chilling tubes on ice for 30 min., then reading the optical density at 650 nm in a Gilford 300-N micro-sample spectrophotometer. Their cell number was obtained by comparing the absorbance to a standard curve constructed from numbers obtained by counting cells in a hemocytometer. […]

Leishmania donovani = test: In vitro antiparasitic activity against Leishmania donovani; assay type: cell-based; conditions: for IC50: Leishmania donovani, 120 h, 5 days at 26° C., read-out: ED50 (the source's name)
Method: as §1
(§2) Leishmania donovani (ATCC #30142)) and Trypanosoma qambiense (TH114, obtained from R. Brun, Schweizer Tropeninstitut, Basel, Switzerland) were grown in THOSMEM, HOSMEM and PPDM-79 media respectively as described in J. J. Marr, R. L. Berens and D. J. Nelson, J. Science. 202, 1018 (1978), J. J. Marr, D. J. Nelson and R. L. Berens, Biochim. Biophys. Acta, 544, 360 (1978) and W. R. Fish, J. J. Marr and R. L. Berens, Biochim. Biophys. Acta, 714, 422 (1982). For drug sensitivity studies these organisms were grown in 10 ml of their respective media in 25 cm^2 tissue culture flasks. Cultures were inoculated to a cell density of […] and incubated for 5 days at 26° C. in a 5% CO2 atmosphere. Final cell density was determined by counting the cells on a Coulter Counter (Model ZBI); control cultures reached a final density of ≈2·10^7 /ml.
(§3) Drug stock solutions were prepared by dissolving the compounds of the invention in 0.1N NaOH and adjusting the final concentration to 2 mg/ml based on extinction coefficient. Drug was added to respective culture media (<2% v/v) and the media filter sterilized. Doses effective against 50% (ED50) and 90% (ED90) were determined by triplicate counting of organisms exposed to various drug concentrations and determining a mean value. Results were expressed as a percentage control.

Trichomonas vaginalis = test: In vitro antiparasitic activity against Trichomonas vaginalis; assay type: cell-based; conditions: for IC50: Trichomonas vaginalis, 72 h, 3 days at 37° C., read-out: ED50 (the source's name)
Method: as §1
(§4) Giardia lamblia (PI, ATCC #30888) and Trichomonas vaqinalis (ATCC #3301) were grown in modified TYI medium in 13×100 mm screw cap tubes as described in R. L. Berens and J. J. Marr, Biochem. Pharm., 35, 4191 (1986). Cultures were inoculated at a density of 10^4 and incubated for 3 days at 37° C.; control cultures reached densities of ≈1-2·10^6 for G. lamblia and ≈6-7·10^6 for T. vaqinalis. These parasites were counted by chilling tubes on ice for 30 min., then reading the optical density at 650 nm in a Gilford 300-N micro-sample spectrophotometer. Their cell number was obtained by comparing the absorbance to a standard curve constructed from numbers obtained by counting cells in a hemocytometer.
as §3

Giardia lamblia = test: In vitro antiparasitic activity against Giardia lamblia; assay type: cell-based; conditions: for IC50: Giardia duodenalis, 72 h, 3 days at 37° C., read-out: ED50 (the source's name); for relative activity against G. lamblia (in words): compared with compound 2
Method: as §1, §4, §3

Toxicity to U937 cells = assay type: cell-based; conditions: human, u937 cells; @ 1μg/ml; read-out: % Control (U937 cells)
U937 cells = test: Toxicity to U937 cells; assay type: cell-based; conditions: 1μg/ml
Trypanosoma gambiense = test: In vitro antiparasitic activity against Trypanosoma gambiense; assay type: cell-based; conditions: for IC50: Trypanosoma brucei, GAMBIENSE, 120 h, 5 days at 26° C., read-out: ED50 (the source's name)
Method: as §1, §2, §3

T. brucei EATRO 110 = test: Antiparasitic activity against T. brucei EATRO 110 in animals (mouse model); assay type: in vivo, Trypanosoma brucei; conditions: mice; for % Cured / Average Survival / Range of Survival: once daily for 3 days
Method: Antiparasitic activity of the compounds of the invention in animals against T. brucei EATRO 110 was determined as described in C. J. Bacchi, R. L. Berens, H. C. Nathan, R. S. Klein, I. A. Elegbe, K. V. Rao, P. P. McCann and J. J. Marr, Antimicrob: Agents Chemother., 31, 1403 (1987) utilizing the mouse model described therein.
Mice (groups of 5) were infected with 2 × 10^5 trypanosomes and
treatment commenced 24 h post inoculation. Drugs were given once daily by
the route indicated for 3 days.

[2] = background; cited from earlier work
certain parasites = conditions: background; cited from earlier work
adenosine kinase = conditions: certain human cell lines in-vitro; cited from earlier work
[3] = background; cited from earlier work; remark: listed apart in the source

With `O.O.O.O.O.O.O.O.O.O=C([O-])[C@@H]1[O][Sb](=[O])([O][Sb]2(=[O])[O][C@H]([C@H](O)CO)[C@H](O)[C@H](C(=O)[O-])[O]2)[O][C@H]([C@H](O)CO)[C@@H]1O.[Na+].[Na+].[Na+]` (stereo partly drawn) [Pentostam, reference compound] the “LDUs in Liver” value (L. donovani; 50 mg/kg/day, intraperitoneal) was 411 ± 245 LDUs and the “Suppression (%)” value (L. donovani; 50 mg/kg/day, intraperitoneal) was 73%.

With `NC(=O)c1ncn([C@@H]2O[C@H](COS(N)(=O)=O)[C@@H](O)[C@H]2O)n1` [Compound 2, 1-(5'-O-Sulfamoyl-β-D-ribofuranosyl)[1,2,4]triazole-3-carboxamide] the “relative antiparasitic activity in vitro (in words)” value [1] was “the most active and had the lowest ED50 against these organisms”, the “antileishmanial activity in vitro (in words)” value (Leishmania donovani) was “significant activity as an antileishmanial agent” and the IC50 (Leishmania donovani) was 0.03 µg/mL (≈ 0.0928 µM). The “LDUs in Liver” value (L. donovani; 10 mg/kg/day, gavage) was 1244 ± 469 LDUs, the “Suppression (%)” value (L. donovani; 10 mg/kg/day, gavage) was 18% and the “LDUs in Liver” value (L. donovani; 20 mg/kg/day, gavage) was 765 ± 133 LDUs. The “Suppression (%)” value (L. donovani; 20 mg/kg/day, gavage) was 50%, the “LDUs in Liver” value (L. donovani; 50 mg/kg/day, gavage) was 501 ± 276 LDUs and the “Suppression (%)” value (L. donovani; 50 mg/kg/day, gavage) was 67%. For the same compound, the “antileishmanial activity in animals (in words)” value (L. donovani; compared with Pentostam) was “good suppression of the parasites in the livers; also recorded: response equivalent to that of optimized Pentostam; also recorded: as active as Pentostam; also recorded: as active as pentavalent antimony”, the IC50 (Trichomonas vaginalis) was greater than 25 µg/mL and the IC50 (Giardia lamblia) was 5 to 10 µg/mL (≈ 15.5 to 30.9 µM). For the same compound, the viability (Toxicity to U937 cells) was 10%, the “toxicity to U937 cells (in words)” value (U937 cells) was “toxic” and the “activity against T. gambiense (in words)” value (Trypanosoma gambiense) was “shows antitrypanosomal activity; also recorded: killed by low concentrations”. For the same compound, the IC50 (Trypanosoma gambiense) was 0.01 to 0.05 µg/mL (≈ 0.0309 to 0.155 µM), the “% Cured” value (T. brucei EATRO 110; 1 mg/kg (i.p.)) was 0% and the “Average Survival” value (T. brucei EATRO 110; 1 mg/kg (i.p.)) was 4.6 days. The “Range of Survival” value (T. brucei EATRO 110; 1 mg/kg (i.p.)) was 4 to 5 days, the “% Cured” value (T. brucei EATRO 110; 5 mg/kg (i.p.)) was 0% and the “Average Survival” value (T. brucei EATRO 110; 5 mg/kg (i.p.)) was 4.8 days. For the same compound, the “Range of Survival” value (T. brucei EATRO 110; 5 mg/kg (i.p.)) was 4 to 6 days, the “% Cured” value (T. brucei EATRO 110; 10 mg/kg (i.p.)) was 0% and the “Average Survival” value (T. brucei EATRO 110; 10 mg/kg (i.p.)) was 7.4 days. For the same compound, the “Range of Survival” value (T. brucei EATRO 110; 10 mg/kg (i.p.)) was 4 to 11 days, the “% Cured” value (T. brucei EATRO 110; 20 mg/kg (i.p.)) was 0% and the “Average Survival” value (T. brucei EATRO 110; 20 mg/kg (i.p.)) was 7.4 days. For the same compound, the “Range of Survival” value (T. brucei EATRO 110; 20 mg/kg (i.p.)) was 4 to 11 days, the “% Cured” value (T. brucei EATRO 110; 50 mg/kg (i.p.)) was 0% and the “Average Survival” value (T. brucei EATRO 110; 50 mg/kg (i.p.)) was 6.4 days. For the same compound, the “Range of Survival” value (T. brucei EATRO 110; 50 mg/kg (i.p.)) was 4 to 10 days, the “% Cured” value (T. brucei EATRO 110; 50 mg/kg (i.v.)) was 0% and the “Average Survival” value (T. brucei EATRO 110; 50 mg/kg (i.v.)) was 6.4 days. For the same compound, the “Range of Survival” value (T. brucei EATRO 110; 50 mg/kg (i.v.)) was 4 to 12 days, the “% Cured” value (T. brucei EATRO 110; 50 mg/kg (p.o.)) was 0% and the “Average Survival” value (T. brucei EATRO 110; 50 mg/kg (p.o.)) was 11.6 days. For the same compound, the “Range of Survival” value (T. brucei EATRO 110; 50 mg/kg (p.o.)) was 10 to 14 days and the “activity against T. brucei in animals (in words)” value (T. brucei EATRO 110; i.p., i.v., oral) was “exhibits this activity when administered orally; also recorded: shows intraperitoneal, intravenous and oral activity; also recorded: oral activity of compound 2 is greater than intraperitoneal activity; also recorded: prolonged survival at all dosages tested”.

For `NC(=O)c1ncn([C@@H]2O[C@H](CO)[C@@H](O)[C@H]2O)n1` [Ribavirin, 1-(β-D-Ribofuranosyl)[1,2,4]triazole-3-carboxamide], the “toxicity (in words)” value [2] is listed as “relatively non-toxic”, the “antiparasitic activity (in words)” value (certain parasites) is listed as “does not have antiparasitic activity” and the “substrate for adenosine kinase (in words)” value (adenosine kinase) is listed as “substrate for adenosine kinase”. The “antiviral activity (in words)” value [3] was “broad spectrum antiviral agent”.

For `Nc1ncnc2c1ncn2[C@@H]1O[C@H](COS(N)(=O)=O)[C@@H](O)[C@H]1O` [5'-O-sulfamoyl adenosine], the “toxicity (in words)” value [2] is given as “extremely toxic” and the “antiparasitic activity (in words)” value (certain parasites) is given as “active in-vitro against certain parasites”.

For `N#Cc1ncn([C@@H]2O[C@H](COS(N)(=O)=O)[C@@H](O)[C@H]2O)n1` [Compound 4, 1-(5'-0-Sulfamoyl-β-D-ribofuranosyl)[1,2,4]triazole-3-carbonitrile], the IC50 (Leishmania donovani) was 1 to 5 µg/mL (≈ 3.28 to 16.4 µM), the IC50 (Trichomonas vaginalis) was greater than 25 µg/mL and the IC50 (Giardia lamblia) was greater than 25 µg/mL. The “relative activity against G. lamblia (in words)” value (Giardia lamblia) was “about the same as for compound 2” and the IC50 (Trypanosoma gambiense) was 1 to 5 µg/mL (≈ 3.28 to 16.4 µM).

With `NC(=S)c1ncn([C@@H]2O[C@H](COS(N)(=O)=O)[C@@H](O)[C@H]2O)n1` [Compound 3, 1-(5'-O-Sulfamoyl-β-D-ribofuranosyl)[1,2,4]triazole-3-thiocarboxamide] the IC50 (Leishmania donovani) was 2.5 µg/mL (≈ 7.37 µM), the IC50 (Trichomonas vaginalis) was 15 µg/mL (≈ 44.2 µM) and the “relative activity against T. vaginalis (in words)” value (Trichomonas vaginalis; compared with compounds 2 or 4) was “greater activity; also recorded: greater activity than compounds 2 or 4”. For the same compound, the IC50 (Giardia lamblia) was greater than 25 µg/mL, the “relative activity against G. lamblia (in words)” value (Giardia lamblia) was “about the same as for compound 2” and the IC50 (Trypanosoma gambiense) was 0.5 µg/mL (≈ 1.47 µM).
